*: point of attachment. NHNH2 = NN*
Experiments:
[1] = test system: HepG2 cells expressing EGFP; test: EGFP-targeting siRNA delivery (GFP silencing vs siMOCK), HepG2; format: cell-based
Method: To generate an EGFP expressing HeLa cell line, HeLa cells were transfected with EGFP pDNA (pEGFP-C1, Clontech) and stable transfectants were selected with 400 μg/mL of G-418 (Millipore). Green clones were selected by epifluorescence microscopy and tested for EGFP expression stability through several passages. […] All other EGFP-expressing cell lines were obtained in a similar way from parent non-EGFP-expressing cell lines.
Cells expressing EGFP were seeded in a 96 well plate the day before the experiment at a concentration of 50,000 cell/mL (100 μL/w) in DMEM+10% FBS+1% Gln-Abt. For robotic library screening, the delivery of an EGFP-targeting siRNA (EGFP: enhanced green fluorescent protein, Ambion® Silencer® GFP Positive Control siRNA (siGFP) (AM4626)) in six different cell lines expressing EGFP was performed. […] The mixture was shaken for 30 min at room temperature (rt) before the addition to the cells. The cell medium was aspirated, and cells were washed twice with PBS. Finally, 50 μL of the solution of siRNA/amphiphile complexes were added to the cells and incubated for 4 h. After transfection, the medium was replaced by 100 μL of fresh DMEM supplemented with 10% FBS. The fluorescence knockdown was quantified after 72 h in a plate reader, by comparison with cells transfected with a non-targeting siRNA control (siMOCK, Silencer™ Negative Control No. 1 siRNA (siMOCK) (AM4611)). EGFP knockdown was compared with Lipofectamine® RNAiMAX silencing efficiency (30-60% depending on cell line, defined with a numeric value in the below tables). All experiments were done in triplicate.
(§1) Tables 1-7: RLuc (pDNA) or EGFP (mRNA) expression levels were normalized to Lipofectamine reagents (value=1) and expressed as fold-times signal increase. In the case of siRNA, the siRNA treated cells fluorescence was compared with siMOCK control fluorescence, while Cas9-RNP mediated knockout was measured against the fluorescence of untreated cells. In both siRNA and Cas9-RNP, values are expressed as % fluorescence reduction. Amphiphile concentration was 5 μM in all cases. All experiments were performed in triplicate.
Tables 20-25 show the mean (triplicates) percentage of GFP-silencing, accounted by fluorescence intensity decrease relative to a non-targeting siRNA (siMOCK) control, measured after the transfection of siRNA by different amphiphiles at different concentrations in a variety of cell lines. Background values, accounted by untreated control cells, were subtracted for processing.

HCT116 cells = test: EGFP mRNA delivery, robotic library screening, HCT116; format: cell-based
Method: Cells were seeded in a 96 well plate the day before the experiment at a concentration of 50,000 cell/mL (100 μL/w) in DMEM+10% FBS+1% Gln-Abt. For robotic library screening, the delivery of EGFP-mRNA (from TriLink, fully substituted with 5-methoxyuridine, capped and polyadenylated; TriLink, CleanCap® EGFP mRNA (5moU), ref. L-7201) in six different cell lines was performed. Amphiphilic molecule stock solutions were prepared in DMSO as described above and diluted in DMEM to afford a range of concentrations. The solutions of EGFP-mRNA/amphiphilic molecule complexes were freshly prepared prior to the transfection experiments. 35 μL of the corresponding amphiphile were added to 10 μL of a solution of EGFP-mRNA at 10 ng/μL in DMEM. The mixture was shaken for 30 min at room temperature before the addition to the cells. The cell medium was aspirated, and cells were washed with PBS twice. Cells were covered with 39 μL of DMEM and 11 μL of the complex's solution were added to the cells and incubated for 4 h (final concentration of peptide=2.5, 5 and 10 μM; final concentration of EGFP-mRNA=25 ng/well). After the incubation, the medium was replaced by 100 μL of fresh DMEM supplemented with 10% FBS. The total EGFP fluorescence was quantified after 72 h in a well plate reader. Amphiphile transfection efficiency was compared and normalized to Lipofectamine® MessengerMax efficiency (value of 1 in Tables 1-5 and 7; double underlined numbers). All experiments were done in triplicate.
as §1
Tables 14-19 show the mean (triplicates) fluorescence intensity measured after the transfection of EGFP mRNA by different amphiphiles at different concentrations in a variety of cell lines. Background fluorescence values, accounted by untreated control cells, were subtracted for processing.

Ac-RHLK*RHK*RRLK*RH-NH2 (Ac-RHLKRHKRRLKRH-NH2; not fully specified (residues 4, 7, 11); printed as Ac-RHLK*RHK*RRLK*RH-NH2; also: linker on K* not given here) [13(3His)]
percentage of GFP-silencing relative to siMOCK ([1]; Myristoleyl, 10 μM): 8%
percentage of GFP-silencing relative to siMOCK ([1]; Palmitoleyl, 10 μM): 6%
percentage of GFP-silencing relative to siMOCK ([1]; Petroselinyl, 5 μM): −1%
percentage of GFP-silencing relative to siMOCK ([1]; Petroselinyl, 10 μM): 19%
mean fluorescence intensity (EGFP mRNA) (HCT116 cells; Petroselinyl, 2.5 μM): 563
mean fluorescence intensity (EGFP mRNA) (HCT116 cells; Petroselinyl, 5 μM): 238
mean fluorescence intensity (EGFP mRNA) (HCT116 cells; Petroselinyl, 10 μM): 541

Ac-RHLK*RLK*RRLK*RL-NH2 (Ac-RHLKRLKRRLKRL-NH2; not fully specified (residues 4, 7, 11); printed as Ac-RHLK*RLK*RRLK*RL-NH2; also: linker on K* not given here) [13(Arg-His)]
percentage of GFP-silencing relative to siMOCK ([1]; Palmitoleyl, 10 μM): 30%
percentage of GFP-silencing relative to siMOCK ([1]; Petroselinyl, 5 μM): 21%
mean fluorescence intensity (EGFP mRNA) (HCT116 cells; Myristoleyl, 2.5 μM): 2974
mean fluorescence intensity (EGFP mRNA) (HCT116 cells; Myristoleyl, 5 μM): 4154
mean fluorescence intensity (EGFP mRNA) (HCT116 cells; Myristoleyl, 10 μM): 4744
mean fluorescence intensity (EGFP mRNA) (HCT116 cells; Palmitoleyl, 2.5 μM): 4249
mean fluorescence intensity (EGFP mRNA) (HCT116 cells; Petroselinyl, 2.5 μM): 1065
mean fluorescence intensity (EGFP mRNA) (HCT116 cells; Petroselinyl, 5 μM): 490
mean fluorescence intensity (EGFP mRNA) (HCT116 cells; Petroselinyl, 10 μM): 61

Ac-RK*LRK*K*L-NH2 (Ac-RK(NHNH2)LRK(NHNH2)K(NHNH2)L-NH2; not fully specified; printed as Ac-RK*LRK*K*L-NH2; also: K*2,K*5,K*6: native or modified lysine (ε-amide to a linker)) [Peptide 7.3]
percentage of GFP-silencing relative to siMOCK ([1]; Dodecanal, 10 μM): 17%
percentage of GFP-silencing relative to siMOCK ([1]; Dodecanal, 15 μM): 10%
percentage of GFP-silencing relative to siMOCK ([1]; Myristoleyl, 5 μM): 6%
percentage of GFP-silencing relative to siMOCK ([1]; Myristoleyl, 10 μM): 5%
percentage of GFP-silencing relative to siMOCK ([1]; Myristoleyl, 15 μM): 3%
percentage of GFP-silencing relative to siMOCK ([1]; Oleyl, 5 μM): 7%
percentage of GFP-silencing relative to siMOCK ([1]; Oleyl, 10 μM): 9%
percentage of GFP-silencing relative to siMOCK ([1]; Palmitoleyl, 5 μM): 9%
percentage of GFP-silencing relative to siMOCK ([1]; Petroselinyl, 5 μM): 18%
percentage of GFP-silencing relative to siMOCK ([1]; Petroselinyl, 10 μM): 19%
mean fluorescence intensity (EGFP mRNA) (HCT116 cells; Dodecanal, 2.5 μM): 5668
mean fluorescence intensity (EGFP mRNA) (HCT116 cells; Dodecanal, 5 μM): 6749
mean fluorescence intensity (EGFP mRNA) (HCT116 cells; Dodecanal, 10 μM): 1139
mean fluorescence intensity (EGFP mRNA) (HCT116 cells; Myristoleyl, 2.5 μM): 35826
mean fluorescence intensity (EGFP mRNA) (HCT116 cells; Myristoleyl, 5 μM): 2060
mean fluorescence intensity (EGFP mRNA) (HCT116 cells; Petroselinyl, 2.5 μM): 6670
mean fluorescence intensity (EGFP mRNA) (HCT116 cells; Petroselinyl, 5 μM): 1464
mean fluorescence intensity (EGFP mRNA) (HCT116 cells; Petroselinyl, 10 μM): 1093

Ac-RK*LRRK*L-NH2 (Ac-RK(NHNH2)LRRK(NHNH2)L-NH2; not fully specified; printed as Ac-RK*LRRK*L-NH2; also: K*2,K*6: native or modified lysine (ε-amide to a linker)) [Peptide 7.2]
percentage of GFP-silencing relative to siMOCK ([1]; Dodecanal, 10 μM): 14%
percentage of GFP-silencing relative to siMOCK ([1]; Dodecanal, 15 μM): 7%
percentage of GFP-silencing relative to siMOCK ([1]; Myristoleyl, 5 μM): −12%
percentage of GFP-silencing relative to siMOCK ([1]; Myristoleyl, 10 μM): −1%
percentage of GFP-silencing relative to siMOCK ([1]; Myristoleyl, 15 μM): −32%
mean fluorescence intensity (EGFP mRNA) (HCT116 cells; Dodecanal, 2.5 μM): 613
mean fluorescence intensity (EGFP mRNA) (HCT116 cells; Dodecanal, 5 μM): 672
mean fluorescence intensity (EGFP mRNA) (HCT116 cells; Dodecanal, 10 μM): 1077
mean fluorescence intensity (EGFP mRNA) (HCT116 cells; Myristoleyl, 2.5 μM): 4952
mean fluorescence intensity (EGFP mRNA) (HCT116 cells; Myristoleyl, 5 μM): 1710

Ac-RRLK*RLLRRLK*RL-NH2 (Ac-RRLK(NHNH2)RLLRRLK(NHNH2)RL-NH2; not fully specified; printed as Ac-RRLK*RLLRRLK*RL-NH2; also: K*4,K*11: native or modified lysine (ε-amide to a linker)) [Peptide 13.2]
percentage of GFP-silencing relative to siMOCK ([1]; Dodecanal, 10 μM): 13%
percentage of GFP-silencing relative to siMOCK ([1]; Dodecanal, 15 μM): −5%
percentage of GFP-silencing relative to siMOCK ([1]; Palmitoleyl, 5 μM): 16%
percentage of GFP-silencing relative to siMOCK ([1]; Palmitoleyl, 10 μM): 4%
percentage of GFP-silencing relative to siMOCK ([1]; Palmitoleyl, 15 μM): 7%
percentage of GFP-silencing relative to siMOCK ([1]; Petroselinyl, 5 μM): −11%
percentage of GFP-silencing relative to siMOCK ([1]; Petroselinyl, 10 μM): 2%
percentage of GFP-silencing relative to siMOCK ([1]; Petroselinyl, 15 μM): 0%

From patent US20250304623A1, “PEPTIDES FOR INTRACELLULAR DELIVERY” (UNIVERSIDADE DE SANTIAGO DE COMPOSTELA, priority 2022, published 2025)
